Here are results for six molecules from patent US20090111828A1, “L-ALANINE DERIVATIVES” (ASTRAZENECA AB, priority 2005, published 2009).

The target of assay [1] is T1, α5β1 integrin (Homo sapiens, UniProt P05556+P08648). Kind of assay: In vitro cell adhesion assay: α5β1 integrin mediated adhesion of K562 cells to fibronectin fragment Fn9-10. Set-up: α5β1 integrin mediated adhesion of K562 cells; host or cells: K562 human erythroleukaemia cells. Particulars: K562 cells on Fn9-10 coated plates; 0.2 mM MnCl; read-out: b) Cell Adhesion Assay. The format is cell-based. The text has this: The assay determined the ability of compounds to inhibit the α5β1 integrin mediated adhesion of K562 cells to the ligand, a fragment of human fibronectin. The human K562 erythroleukaemia cell line (LGC Promochem, Teddington, Middlesex, UK, Catalogue No. CCL-243) was routinely maintained in RPMI 1640 medium (Sigma-Aldrich Company Ltd, Gillingham, Dorset SP8 4XT, Catalogue No. R0883) containing 10% heat-inactivated foetal calf serum (PAA lab GmbH, Pasching, Austria Catalogue No. PAA-A15-043) and 1% glutamax-1 (Invitrogen Ltd. Paisley, UK Catalogue No. 35050-038) at 37° C. with 5% CO2 at densities between 1×10^5 and 1×10^6 cells/ml.
A DNA fragment encoding the domains 9-10 (amino-acids 1325-1509) of human fibronectin (Swiss-Prot Acession No. P02751) was isolated from cDNA libraries using standard molecular biology and PCR cloning techniques. The cDNA fragment was sub-cloned into a pT7#3.3 expression vector containing a GST-epitope tag (developed at AstraZeneca; Bagnall et al., Protein Expression and Purification, 2003, 27: 1-11) and the fragment termed Fn9-10. Following expression in E. coli, the expressed protein was purified using the GST-tag using standard purification techniques.
For adhesion assay, a 96-well flat bottomed plate (Greiner Bio one ltd., Gloucester GL10 3SX Catalogue No. 655101) was coated overnight at 4° C. with 100 μl of 20 μg/ml Fn9-10 ligand in Dulbecco's PBS (Gibco#14190-94). The plate was then washed twice with 200 μl of PBS and blocked with 100 μl of 3% BSA (SigmaA7888) in PBS for 1 hour at 37° C. The plates were then washed again 3 times with 200 μl of PBS and left empty.
Test compounds were prepared as 10 mM stock solutions in DMSO (Sigma-Aldrich Company Ltd, Gillingham, Dorset SP8 4XT Catalogue No. 154938) and serially diluted with HBSS (Hanks Buffered Salt solution (Gibco Catalogue No. 14170-088)/2% DMSO to give a range of test concentrations at twice required final concentration. Aliquots (50 μl) of each compound dilution were placed into each well of the Fn9-10 coated plates. Each plate also contained control wells: maximum adhesion signal was created using wells containing 50 μl HBSS/2% DMSO and minimum signal corresponding to no adhesion was created using wells containing 50 μl HBSS/2% DMSO/20 mM EDTA (Sigma Catalogue No. E7889).
The K562 cells were cultured to ˜1×10^6 cells/ml and each culture suspension pooled. Cells were centrifuged at 1200 rpm for 2 mins and the pellets washed with HBSS followed by HBSS/50 mM HEPES (Sigma Catalogue No. H0887). Cell pellets were pooled and resuspended in HBSS/0.4 mM manganese chloride/50 mM HEPES (MnCl; Sigma Catalogue No. M1787) to give a final concentration of 4×10^6 cells/ml.
The assay was initiated by the addition of 50 μl of cell suspension into each coated well (200,000 cells/well), thus resulting in final desired compound concentration and a final MnCl concentration of 0.2 mM. The plates were incubated for 45 minutes at 37° C. 5% CO2. After this time, the solution was flicked off as waste and the remaining cell layer carefully washed twice with 200 μl of PBS and then fixed with 200 μl of 100% ethanol for 30 minutes.
After fixation, the ethanol was flicked off to waste and 100 μl of 0.1% Crystal violet stain was added to each well and incubated at ambient temperature for 15 minutes. Excess stain was removed by rinsing ˜3 times under cold slow running water. The plates were blotted over tissue then solubilised by adding 50 μl of 1% Triton X100 (Sigma Catalogue No. T9284) and shaking at 500 rpm for 30 mins on plate shaker. Finally, 100 μl of deionised water was added to each well and the absorbance was determined at 590 nm on a spectrophotometer. The minimum value was subtracted from all values and the absorbance signal was plotted against compound concentration to generate IC50 data.

The target of assay [2] is T1, α5β1 integrin. Kind of assay: In vitro binding assay: inhibition of binding of α5β1 integrin to fibronectin fragment Fn9-10 (Origen electrochemiluminescence). Particulars: human a5b1 purified from placenta; biotinylated Fn9-10 ligand. On the procedure:
The assay determined the ability of compounds to inhibit binding of a5 μl integrin to a cognate ligand, a fragment of human fibronectin. The assay used Origen technology (IGEN International) to measure the compound activity. Briefly, (α5β1 integrin was coated onto epoxy-paramagnetic beads (Dynal Biotech UK, Bromborough, Wirral, CH62 3QL, UK, Catalogue No 143.02) and biotinylated-fibronectin ligand was coupled to strepatividin labelled BV-Tag-NHS-Ester (BioVeris Corporation, Witney, Oxfordshire, OX28 4GE, UK, Catalogue No JSF396). The ruthenium-labelled BV-Tag emits a electrochemiluminescence signal upon stimulation which is detected by the Origen reader. Thus, interaction of integrin and ligand causes association of bead and tag and the resulting electrochemiluminescence signal reflects the level of integrin interaction with fibronectin.
12 μg of human a5 μl purified from placenta (Chemicon, Chandlers Ford, Hampshire, SO53 4NF, UK, Catalogue No CC1055-K) was coated onto surface-activated 3 mg of epoxy-paramagnetic beads in PBS and 1M ammonium sulfate following manufacturers instructions at 4° C. for 24 hours. Coated beads were then washed into Assay Buffer (25 mM Hepes, 150 mM NaCl, 1 mM MgCl, 1 mM MnCl, 0.1% Tween, pH7.4) to give a final concentration of 20 μg of α5β1/ml. Immediately prior to the assay, the beads were further diluted ×40 fold in Assay Buffer to give a concentration of 0.5 μg α5β1/ml.
A DNA fragment encoding the domains 9-10 (amino-acids 1325-1509) of human fibronectin (Swiss-Prot Acession No. P02751) was isolated from cDNA libraries using standard molecular biology and PCR cloning techniques. The cDNA fragment was sub-cloned into a pT73.3 expression vector containing a GST-epitope tag (developed at AstraZeneca; Bagnall et al., Protein Expression and Purification, 2003, 27: 1-11). Following expression in E. coli, the expressed protein, termed Fn9-10, was purified using the GST-tag using standard purification techniques. The recombinant Fn9-10 was subsequently biotinylated using a EZ-link Sulfo-NHS-LC-Biotinylation kit (Perbio Science UK Ltd., Cramlington, Northumberland, NE23 1WA, UK, Catalogue No. 21335) and made to give a final concentration of approximately 1 mg/ml. BV-Tag-NHS-Ester was labelled with streptavidin by incubation at room temperature following manufacturers instructions and buffer-exchanged into PBS to give a concentration of 0.5 mg/ml. […]
For the assay, […] of a5b1-bead suspension and 40 μl of the Fn9-10/BV-Tag preincubated solution were added to each well containing 20 μl of compound or control solution. Assay plates were then incubated at room temperature for a minimum of 6 hours before being analysed on the Origen plate reader. […]

The structures appear in SMILES notation.

T1 sequence (P08648 42-894 limits assumed): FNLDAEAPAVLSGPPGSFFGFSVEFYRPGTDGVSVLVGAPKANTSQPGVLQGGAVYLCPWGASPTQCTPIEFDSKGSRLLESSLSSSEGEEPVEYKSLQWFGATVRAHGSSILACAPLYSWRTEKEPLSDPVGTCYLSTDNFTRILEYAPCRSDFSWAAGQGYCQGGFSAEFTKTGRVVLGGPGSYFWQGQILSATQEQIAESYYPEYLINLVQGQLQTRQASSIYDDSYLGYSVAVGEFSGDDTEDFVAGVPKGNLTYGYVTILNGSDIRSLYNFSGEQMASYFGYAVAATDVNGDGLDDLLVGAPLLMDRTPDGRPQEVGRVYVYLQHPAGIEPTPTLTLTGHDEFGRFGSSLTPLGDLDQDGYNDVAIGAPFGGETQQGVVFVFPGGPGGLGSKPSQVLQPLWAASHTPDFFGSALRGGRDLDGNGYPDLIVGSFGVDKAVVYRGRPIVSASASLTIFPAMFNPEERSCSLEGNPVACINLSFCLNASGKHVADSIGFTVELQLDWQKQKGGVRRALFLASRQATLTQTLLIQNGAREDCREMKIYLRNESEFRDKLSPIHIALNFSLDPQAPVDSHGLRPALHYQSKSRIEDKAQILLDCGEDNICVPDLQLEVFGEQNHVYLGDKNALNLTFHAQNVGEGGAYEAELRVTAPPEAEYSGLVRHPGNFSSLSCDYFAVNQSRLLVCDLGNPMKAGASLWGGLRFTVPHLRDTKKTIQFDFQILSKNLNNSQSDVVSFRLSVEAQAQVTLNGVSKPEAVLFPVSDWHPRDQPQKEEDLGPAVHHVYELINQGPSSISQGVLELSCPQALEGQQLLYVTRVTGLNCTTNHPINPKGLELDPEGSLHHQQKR
T1 sequence (P08648 895-1049 partner limits assumed): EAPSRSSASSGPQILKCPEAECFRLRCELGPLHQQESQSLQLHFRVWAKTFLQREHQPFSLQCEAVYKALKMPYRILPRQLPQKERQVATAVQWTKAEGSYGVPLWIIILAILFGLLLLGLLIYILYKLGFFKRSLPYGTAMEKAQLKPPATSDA
T1 sequence (P05556 21-798): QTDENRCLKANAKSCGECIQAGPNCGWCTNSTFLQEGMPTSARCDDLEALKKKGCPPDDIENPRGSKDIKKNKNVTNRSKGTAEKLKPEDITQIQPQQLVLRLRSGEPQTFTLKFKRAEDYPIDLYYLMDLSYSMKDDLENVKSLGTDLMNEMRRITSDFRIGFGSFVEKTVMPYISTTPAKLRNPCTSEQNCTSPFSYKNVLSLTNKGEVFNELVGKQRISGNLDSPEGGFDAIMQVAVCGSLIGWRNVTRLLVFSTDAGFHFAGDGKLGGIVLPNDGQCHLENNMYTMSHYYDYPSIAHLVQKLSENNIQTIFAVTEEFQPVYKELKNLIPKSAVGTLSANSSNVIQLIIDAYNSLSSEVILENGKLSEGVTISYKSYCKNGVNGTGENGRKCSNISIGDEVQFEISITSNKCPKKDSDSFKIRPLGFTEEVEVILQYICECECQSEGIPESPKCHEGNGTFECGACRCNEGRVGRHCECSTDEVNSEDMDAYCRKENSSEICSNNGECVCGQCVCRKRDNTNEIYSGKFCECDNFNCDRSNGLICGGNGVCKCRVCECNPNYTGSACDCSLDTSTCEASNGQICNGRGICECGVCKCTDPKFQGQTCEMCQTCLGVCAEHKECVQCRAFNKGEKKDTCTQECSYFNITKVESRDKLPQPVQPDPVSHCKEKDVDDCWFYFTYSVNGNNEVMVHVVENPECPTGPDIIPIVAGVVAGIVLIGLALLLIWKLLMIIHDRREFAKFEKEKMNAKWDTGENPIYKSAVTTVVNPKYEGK

Consider `O=C(N[C@@H](Cc1ccc(N2CCN(S(=O)(=O)c3ccccc3)CC2)cn1)C(=O)O)c1c(Cl)cccc1Cl` [N-(2,6-dichlorobenzoyl)-3-{5-[4-(phenylsulfonyl)piperazin-1-yl]pyridin-2-yl}-L-alanine], for which the IC50 in assay [1] was not below 100 µM.
Regarding `CCCS(=O)(=O)N1CC=C(c2ccc(C[C@H](NC(=O)c3c(Cl)cccc3Cl)C(=O)O)nc2)CC1`, the IC50 in assay [2] was found to be 13.9 µM; in assay [1] it was 7 µM.
On to `CS(=O)(=O)N1CC=C(c2ccc(C[C@H](NC(=O)c3c(Cl)cccc3Cl)C(=O)O)nc2)CC1`, for which the IC50 came out at 24.7 µM in assay [2] and 70.5 µM in assay [1].
For the molecule `O=C(N[C@@H](Cc1ccc(C2=CCN(Cc3ccc(F)cc3)CC2)cn1)C(=O)O)c1c(Cl)cccc1Cl`, the IC50 in assay [2] came out at 6 µM; in assay [1], 13.2 µM.
Take `O=C(N[C@@H](Cc1ccc(C2=CCN(C(=O)c3cccc(F)c3)CC2)cn1)C(=O)O)c1c(Cl)cccc1Cl`: the IC50 in assay [2] was 7.2 µM; in assay [1], 48 µM.
Take `CC(=O)NCC(=O)N1CC=C(c2ccc(C[C@H](NC(=O)c3c(Cl)cccc3Cl)C(=O)O)nc2)CC1` [3-[1′-(N-acetylglycyl)-1′,2′,3′,6′-tetrahydro-3,4′-bipyridin-6-yl]-N-(2,6-dichlorobenzoyl)-L-alanine]: the IC50 in assay [1] is not below 100 µM.
